The values below come from US11597728B2, “Monoacylglycerol lipase modulators” (Janssen Pharmaceutica NV, priority 2018, dated 2023).

SMILES strings stand for the structures.

The target in the test is human MGL from HeLa cells (Homo sapiens (Human), UniProt Q99685). As to the kind of experiment: In vitro MGL activity assay: cleavage of [glycerol-1,3-3H]-oleoyl glycerol, activated carbon filtration. It counts as biochemical.
human MGL from HeLa cells, sequence (Q99685 whole entry): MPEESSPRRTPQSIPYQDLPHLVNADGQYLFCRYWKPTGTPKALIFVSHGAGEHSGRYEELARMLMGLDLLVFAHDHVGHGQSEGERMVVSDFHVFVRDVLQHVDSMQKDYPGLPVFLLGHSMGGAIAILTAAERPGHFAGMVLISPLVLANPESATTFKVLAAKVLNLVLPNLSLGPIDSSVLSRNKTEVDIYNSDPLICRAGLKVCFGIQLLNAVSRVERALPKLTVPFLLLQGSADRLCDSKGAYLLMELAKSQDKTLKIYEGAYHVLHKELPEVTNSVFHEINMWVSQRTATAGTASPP

One may read the IC50 as the concentration at which inhibition is half-maximal. Consider `Cn1nc2c(c1-c1ccc(F)c(F)c1)C[C@H]1CCC[C@@H]2N1C(=O)c1ccccc1-n1nccn1` [Example 126, (2-(2H-1,2,3-Triazol-2-yl)phenyl)((5R,9S)-3-(3,4-difluorophenyl)-2-methyl-4,5,6,7,8,9-hexahydro-2H-5,9-epiminocycloocta[c]pyrazol-10-yl)methanone], for which the midpoint of inhibition, the IC50, lay at 7.44 nM.
